Results as given in patent publication US20250368648A1, “MULTI-CYCLIC IRAK AND FLT3 INHIBITING COMPOUNDS AND USES THEREOF” (CHILDREN'S HOSPITAL MEDICAL CENTER, priority 2022, published 2025).

Experiments:
[1] = biological target: T1, FLT3 (Homo sapiens, UniProt P36888); test: Reaction Biology NanoBRET target engagement assay, FLT3; assay type: cell-based; details: HEK-293 cells transfected with Kinase-NanoLuc fusion vector, live cells
T1 sequence (P36888 27-993): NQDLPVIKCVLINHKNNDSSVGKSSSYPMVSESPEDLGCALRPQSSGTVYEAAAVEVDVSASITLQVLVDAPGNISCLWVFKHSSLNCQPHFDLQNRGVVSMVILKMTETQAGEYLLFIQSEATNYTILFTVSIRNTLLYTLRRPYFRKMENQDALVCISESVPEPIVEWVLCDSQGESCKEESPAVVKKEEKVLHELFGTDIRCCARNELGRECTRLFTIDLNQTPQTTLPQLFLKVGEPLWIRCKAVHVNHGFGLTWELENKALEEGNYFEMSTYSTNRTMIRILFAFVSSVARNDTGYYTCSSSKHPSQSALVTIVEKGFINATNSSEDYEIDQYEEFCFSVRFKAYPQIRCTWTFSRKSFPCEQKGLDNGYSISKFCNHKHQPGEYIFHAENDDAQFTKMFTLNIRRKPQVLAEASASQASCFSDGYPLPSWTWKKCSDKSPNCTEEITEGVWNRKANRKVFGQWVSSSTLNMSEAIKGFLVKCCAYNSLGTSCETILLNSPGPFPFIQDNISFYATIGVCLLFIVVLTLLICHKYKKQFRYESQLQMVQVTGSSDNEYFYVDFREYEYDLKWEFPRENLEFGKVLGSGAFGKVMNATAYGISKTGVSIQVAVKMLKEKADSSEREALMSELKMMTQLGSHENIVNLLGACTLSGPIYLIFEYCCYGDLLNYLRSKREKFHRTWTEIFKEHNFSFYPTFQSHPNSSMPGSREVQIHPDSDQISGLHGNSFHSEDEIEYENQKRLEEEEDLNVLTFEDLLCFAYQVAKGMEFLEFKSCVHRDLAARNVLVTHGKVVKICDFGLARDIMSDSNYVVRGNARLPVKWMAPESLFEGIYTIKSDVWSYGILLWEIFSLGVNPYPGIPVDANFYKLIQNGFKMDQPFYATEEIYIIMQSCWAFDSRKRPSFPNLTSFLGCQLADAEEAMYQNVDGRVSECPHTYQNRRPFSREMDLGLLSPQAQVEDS
Excerpt: (§1) The NanoBRET assay measures kinase engagement in real time in the context of the intact cell. Unlike the previously described biochemical kinase assay methodologies in Examples 47 and 48, the NanoBRET assay measures the binding and activity characteristics under equilibrium conditions using full-length kinases in the presence of cellular concentrations of ATP in live, uncompromised cells. […] The assay uses a Kinase-NanoLuc® fusion vector expressing a kinase protein to which a luciferase tag has been added, a cell-permeant fluorescent NanoBRET™ tracer, a NanoLuc® substrate, and an extracellular NanoLuc® inhibitor. Upon expression of the luciferase-tagged kinase, cells will produce a strong BRET signal only in the presence of the NanoBRET™ tracer. The extracellular NanoLuc® inhibitor ensures that the BRET signal observed emanates only from live cells. Because the BRET signal has tight distance constraints, addition of the test compound will decrease the BRET signal if the compound competes with the NanoBRET™ tracer for binding to the kinase domain. Under the appropriate tracer conditions established by the manufacturer, quantitative intracellular affinity and relative potency can then be determined using Mass Action model equations.
(§2) HEK-293 cells were purchased from ATCC. FuGENEHD Transfection Reagent, Kinase-NanoLucfusion plasmids, Transfection Carrier DNA, NanoBRETTracers and dilution buffer, NanoBRETNano-Glo Substrate, Extracellular NanoLucInhibitor were obtained from Promega.
(§3) Assays were conducted following Promega assay protocol with some modifications. HEK-293 Cells were transiently transfected with Kinase-NanoLucFusion Vector DNA by FuGENEHD Transfection Reagent. Testing compounds were delivered into 384 well assay plate by Echo 550 (LabcyteInc, Sunnyvale, CA). Transfected cells were harvested and mixed with NanoBRETTracer Reagent and dispensed into 384 well plates and incubated at 37° C. in 5% CO2 cell culture incubator for 1 hour. The NanoBRETNano-Glo Substrate plus Extracellular NanoLucInhibitor Solution were added into the wells of the assay plate and incubated for 2-3 minutes at room temperature. The donor emission wavelength (460 nm) and acceptor emission wavelength (600 nm) were measured in the EnVisionplate reader. The BRET Ratios were calculated. BRET Ratio=[(Acceptor sample÷Donor sample)−(Acceptor no-tracer control÷Donor no-tracer control)]. The IC50 values of compounds were calculated with Prism GraphPad program.
(§4) • 1). Cultivate HEK-293 cells (70-80% confluence) appropriately prior to assay. Trypsinize and collect HEK-293 cells. • 2). Prepare lipid: DNA complexes as follows: • a. Prepare a 10 μg/ml solution of DNA in Opti-MEM without serum that consists of the following ratios of carrier DNA and DNA encoding NanoLuc® fusion. […] of Transfection Carrier DNA, […] of NanoLuc fusion vector DNA and 1 mL of Opti-MEM without phenol red. Mix thoroughly. • b. Add 30 μl of FuGENE HD Transfection Reagent into each milliliter of DNA mixture to form lipid: DNA complex. • c. Mix by inversion 10 times. • d. Incubate at ambient temperature for 20 minutes to allow complexes to form. • 3). In a sterile, conical tube, mix 1 part of lipid:DNA complex with 20 parts of HEK-293 cells in suspension. Mix gently by inversion 5 times. • 4). Dispense cells+lipid: DNA complex into a sterile tissue culture dish and incubate for 22-24 hours.
(§5) Each test compound is delivered from the compound source plate to the wells of 384-well white NBS plate by Echo 550.
(§6) 3. Preparation of Cells with NanoBRET™ Tracer Reagent • 1). Remove medium from dish with transfected HEK-293 cells via aspiration, trypsinize and allow cells to dissociate from the dish. • 2). Neutralize trypsin using medium containing serum and centrifuge at 200× g for 5 minutes to pellet the cells. Adjust the cell density to […] cells/mL in Opti-MEM without phenol red. • 3). Prepare Complete 20× NanoBRET™ Tracer Reagent with Tracer Dilution Buffer. • 4). […]

[2] = biological target: T2, IRAK4 (Homo sapiens, UniProt Q9NWZ3); test: Reaction Biology NanoBRET target engagement assay, IRAK4; assay type: cell-based; details: HEK-293 cells transfected with Kinase-NanoLuc fusion vector, live cells
T2 sequence (Q9NWZ3 1-460): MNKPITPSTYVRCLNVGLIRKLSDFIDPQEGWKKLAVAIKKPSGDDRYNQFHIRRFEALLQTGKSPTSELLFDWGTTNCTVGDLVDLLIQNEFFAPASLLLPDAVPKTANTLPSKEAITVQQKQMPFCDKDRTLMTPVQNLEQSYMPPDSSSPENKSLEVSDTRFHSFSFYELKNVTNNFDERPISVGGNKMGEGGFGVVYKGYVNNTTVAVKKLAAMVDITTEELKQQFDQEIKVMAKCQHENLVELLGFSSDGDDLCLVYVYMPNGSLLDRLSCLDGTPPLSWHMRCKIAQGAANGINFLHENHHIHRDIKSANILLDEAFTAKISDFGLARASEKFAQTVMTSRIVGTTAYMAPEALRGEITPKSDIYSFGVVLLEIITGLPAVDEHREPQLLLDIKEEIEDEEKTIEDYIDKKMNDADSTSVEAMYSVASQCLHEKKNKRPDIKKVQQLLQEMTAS
Excerpt: as §1, §2, §3, §4, §5, §6

| Compound | IC50 [1] [nM] | IC50 [2] [nM] |
| --- | --- | --- |
| COc1cc2ncc(-c3nc(N[C@H]4CNCC[C@@H]4F)c(F)cc3F)n2nc1C(C)(O)C(F)(F)F (single isomer, unassigned) [Compound 77a] | 2 | 0.4 |
| COc1cc2ncc(-c3nc(N[C@H]4CNC[C@@H]4F)c(F)cc3F)n2nc1C(C)(O)C(F)(F)F (single isomer, unassigned) [Compound 80a] | 1 | 5 |
| COc1cc2ncc(-c3nc(N[C@@H]4CCCNC4)c(F)cc3F)n2nc1C(C)(O)C(F)(F)F (single isomer, unassigned) [Compound 81a] | 5 | 0.6 |
| COc1cc2ncc(-c3nc(N[C@H]4CNCC[C@@H]4F)c(F)cc3F)n2nc1C1CC2(CCC2)C1 [Compound 10a, 3,5-difluoro-N-((3S,4S)-4-fluoropiperidin-3-yl)-6-(7-methoxy-6-(spiro[3.3]heptan-2-yl)imidazo[1,2-b]pyridazin-3-yl)pyridin-2-amine] | 63 | 64 |
| COc1cc2ncc(-c3nc(N[C@H]4CNC[C@@H]4F)c(F)cc3F)n2nc1C1CC2(CCC2)C1 [Compound 12a, 3,5-difluoro-N-((3S,4S)-4-fluoropyrrolidin-3-yl)-6-(7-methoxy-6-(spiro[3.3]heptan-2-yl)imidazo[1,2-b]pyridazin-3-yl)pyridin-2-amine] | 13 | 71 |
| COc1cc2ncc(-c3nc(N[C@H]4CNCC[C@@H]4F)c(F)cc3F)n2nc1C1CCC1 [Compound 15a, 6-(6-cyclobutyl-7-methoxyimidazo[1,2-b]pyridazin-3-yl)-3,5-difluoro-N-((3S,4S)-4-fluoropiperidin-3-yl)pyridin-2-amine] | < 0.5 | 1 |
| COc1cc2ncc(-c3nc(N[C@H]4CNCC[C@@H]4F)c(F)cc3F)n2nc1C12CC(C1)C2 [Compound 67a, 6-(6-(bicyclo[1.1.1]pentan-1-yl)-7-methoxyimidazo[1,2-b]pyridazin-3-yl)-3,5-difluoro-N-((3S,4S)-4-fluoropiperidin-3-yl)pyridin-2-amine] | 1 | 5 |
